Calls of active or inactive are those of the source. The calls are words filed in the database; no cut-off is given here.

Data set [1] is described as follows: Inhibition of human intestinal carboxylesterase expressed in sf21 cells up to 100 uM.
Data set [2] deals with T1, Liver carboxylesterase 1 (Homo sapiens, UniProt P23141).
T1 sequence (P23141 whole entry): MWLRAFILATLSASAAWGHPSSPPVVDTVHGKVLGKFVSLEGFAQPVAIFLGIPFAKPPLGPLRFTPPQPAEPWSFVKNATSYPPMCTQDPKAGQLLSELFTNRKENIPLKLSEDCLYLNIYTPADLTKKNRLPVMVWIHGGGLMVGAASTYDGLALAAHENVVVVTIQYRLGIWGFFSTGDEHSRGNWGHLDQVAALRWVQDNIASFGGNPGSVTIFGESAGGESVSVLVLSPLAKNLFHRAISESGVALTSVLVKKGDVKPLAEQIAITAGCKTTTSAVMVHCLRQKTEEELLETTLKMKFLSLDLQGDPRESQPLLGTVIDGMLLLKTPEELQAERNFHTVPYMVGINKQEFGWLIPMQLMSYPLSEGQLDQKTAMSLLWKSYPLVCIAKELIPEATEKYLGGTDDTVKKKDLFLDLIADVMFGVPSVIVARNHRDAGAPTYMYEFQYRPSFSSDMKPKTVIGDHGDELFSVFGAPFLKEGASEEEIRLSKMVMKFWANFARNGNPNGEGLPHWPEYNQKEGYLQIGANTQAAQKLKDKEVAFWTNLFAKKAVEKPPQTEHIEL
The data set is described as follows: Inhibition of human liver CE1 expressed in sf21 cells up to 100 uM.

Data set [3] is described as follows: Inhibition of rabbit liver carboxylesterase expressed in sf21 cells up to 100 uM. The conditions noted are these: Oryctolagus cuniculus.
The nature of data set [4]: Inhibition of human intestinal carboxylesterase expressed in sf21 cells.
Data set [5] concerns the target T1, Liver carboxylesterase 1. The data set is described as follows: Inhibition of human liver CE1 expressed in sf21 cells. The format is cell-based.
Data set [6] in a line: Inhibition of rabbit liver carboxylesterase expressed in sf21 cells. The format is cell-based, Oryctolagus cuniculus.
A further data set concerns the target Acetylcholinesterase (Homo sapiens, UniProt P22303).
The target in another data set is Cholinesterase (Homo sapiens, UniProt P06276).
Cholinesterase, sequence (P06276 whole entry): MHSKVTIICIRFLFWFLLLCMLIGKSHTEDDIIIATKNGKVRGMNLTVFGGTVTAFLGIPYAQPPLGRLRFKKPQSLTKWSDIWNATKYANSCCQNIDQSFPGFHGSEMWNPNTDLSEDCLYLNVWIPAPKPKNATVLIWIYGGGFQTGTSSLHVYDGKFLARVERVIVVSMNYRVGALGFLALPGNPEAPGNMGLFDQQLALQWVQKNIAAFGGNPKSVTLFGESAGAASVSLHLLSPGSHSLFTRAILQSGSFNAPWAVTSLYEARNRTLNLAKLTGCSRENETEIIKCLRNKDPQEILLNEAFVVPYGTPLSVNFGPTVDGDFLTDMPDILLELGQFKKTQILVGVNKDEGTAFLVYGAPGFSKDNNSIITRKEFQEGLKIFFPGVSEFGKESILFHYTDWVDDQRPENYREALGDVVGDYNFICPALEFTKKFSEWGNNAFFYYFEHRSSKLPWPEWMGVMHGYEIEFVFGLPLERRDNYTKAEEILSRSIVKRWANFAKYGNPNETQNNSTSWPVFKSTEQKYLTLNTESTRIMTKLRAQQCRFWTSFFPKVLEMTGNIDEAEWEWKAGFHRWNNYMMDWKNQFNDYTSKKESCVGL

Acetylcholinesterase, sequence (P22303 whole entry): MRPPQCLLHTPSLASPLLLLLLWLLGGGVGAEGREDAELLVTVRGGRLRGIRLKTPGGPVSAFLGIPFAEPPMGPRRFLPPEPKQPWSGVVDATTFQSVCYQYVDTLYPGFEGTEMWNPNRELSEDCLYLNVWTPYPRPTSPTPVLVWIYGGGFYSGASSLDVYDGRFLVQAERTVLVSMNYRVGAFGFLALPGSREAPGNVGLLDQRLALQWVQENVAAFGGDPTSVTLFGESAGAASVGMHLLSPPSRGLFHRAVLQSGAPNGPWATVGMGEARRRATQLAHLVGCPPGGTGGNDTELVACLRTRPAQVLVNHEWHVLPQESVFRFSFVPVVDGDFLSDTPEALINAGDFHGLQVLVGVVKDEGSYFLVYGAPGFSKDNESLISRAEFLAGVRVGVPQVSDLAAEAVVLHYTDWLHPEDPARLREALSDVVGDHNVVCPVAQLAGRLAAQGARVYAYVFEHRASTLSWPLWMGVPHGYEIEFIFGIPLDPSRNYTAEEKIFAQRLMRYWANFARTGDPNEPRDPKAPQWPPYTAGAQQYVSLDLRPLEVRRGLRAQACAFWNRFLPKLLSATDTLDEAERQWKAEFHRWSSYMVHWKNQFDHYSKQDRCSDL

Consider `C1=Cc2ccccc2C1` [INDENE], for which the result in data set [1] and in data set [3] was inactive. The Activity entry on Liver carboxylesterase 1 [2] is reported as “Not Active”.
`O=C1CC(=O)c2ccccc21`: the result in data set [1] and in data set [3] was inactive. For the same compound, the Activity entry on Liver carboxylesterase 1 [2] is given as “Not Active”.
With `O=C1c2ccccc2C(=O)N1c1ccccc1` [N-PHENYL-PHTHALIMIDE], the outcome in data set [1] and in data set [3] was inactive. In addition, the Activity result on Liver carboxylesterase 1 [2] is reported as “Not Active”.
Turning to `O=C1Nc2ccccc2/C1=N/O`, the outcome in data set [1] and in data set [3] was inactive. In addition, the Activity entry on Liver carboxylesterase 1 [2] was “Not Active”.
Consider `c1ccc2c(c1)CCC2`, for which the outcome in data set [1] and in data set [3] was inactive. For the same compound, the Activity result at Liver carboxylesterase 1 [2] is on record as “Not Active”.
For `O=C1NC(=O)c2ccccc21` [PHTHALIMIDE], the result in data set [1] and in data set [3] was inactive. In addition, at Liver carboxylesterase 1 [2], the Activity entry is on record as “Not Active”.
As usually defined, the Ki is a dissociation constant, usually derived from enzyme kinetics or from competition with a known ligand. Lower therefore signals higher affinity. `O=C1Nc2c(C(=O)O)cccc2C1=O`: the Ki (in data set [4]; at Liver carboxylesterase 1 [5]; in data set [6]; at Acetylcholinesterase; on Cholinesterase) was over 100 µM in each case.
Regarding `c1ccc2[nH]ccc2c1` [INDOLE], the outcome in data set [1] and in data set [3] was inactive. Further, at Liver carboxylesterase 1 [2], the Activity result is recorded as “Not Active”.
Take `O=C1C(=O)N(CCBr)c2ccccc21`: the inhibitory constant (Ki) in data set [4] was 1.58 µM; on Liver carboxylesterase 1 [5], 0.29 µM; in data set [6] it was 5.15 µM; at Acetylcholinesterase, over 100 µM; on Cholinesterase, 28.1 µM.
With `Cc1ccc(C)c2c1NC(=O)C2=O`, the inhibition constant Ki is 30.8 µM in data set [4]; over 100 µM at Liver carboxylesterase 1 [5]; over 100 µM in data set [6]; over 100 µM at Acetylcholinesterase; over 100 µM at Cholinesterase.
As for `c1ccc2c(c1)CCN2` [INDOLINE], the outcome in data set [1] and in data set [3] was inactive. Also, on Liver carboxylesterase 1 [2], the Activity result is reported as “Not Active”.
`C=C(C)CN1C(=O)C(=O)c2cc(Br)ccc21`: the inhibition constant Ki is 0.28 µM in data set [4]; 0.066 µM at Liver carboxylesterase 1 [5]; 0.13 µM in data set [6]; over 100 µM at Acetylcholinesterase; over 100 µM on Cholinesterase.
For `Cc1ccc2c(c1)C(=O)C(=O)N2`, the Ki in data set [4] was over 100 µM; at Liver carboxylesterase 1 [5], over 100 µM; in data set [6] it was 26.2 µM; at Acetylcholinesterase, over 100 µM; on Cholinesterase, over 100 µM.
As for `COc1cc(NCN2C(=O)C(=O)c3ccccc32)cc(OC)c1OC`, the Ki is 2.69 µM in data set [4]; 19.5 µM on Liver carboxylesterase 1 [5]; over 100 µM in data set [6]; over 100 µM on Acetylcholinesterase; over 100 µM at Cholinesterase.
As for `COc1ccc2c(c1)C(=O)C(=O)N2` [5-METHOXYISATIN], the inhibition constant Ki was over 100 µM in data set [4]; over 100 µM on Liver carboxylesterase 1 [5]; 26.7 µM in data set [6]; over 100 µM at Acetylcholinesterase; over 100 µM at Cholinesterase.
Take `O=C1C(=O)N(CO)c2ccccc21`: the Ki in data set [4] is 34.5 µM; on Liver carboxylesterase 1 [5], over 100 µM; in data set [6] it was over 100 µM; on Acetylcholinesterase it was over 100 µM; at Cholinesterase it was over 100 µM.
As to `O=C1Nc2cc(Cl)c(Cl)cc2C1=O`, the Ki in data set [4] is 16.6 µM; on Liver carboxylesterase 1 [5], 21 µM; in data set [6], 0.49 µM; at Acetylcholinesterase, over 100 µM; on Cholinesterase it was over 100 µM.
On to `O=C1C(=O)N(C(=O)CCl)c2ccccc21`, for which the inhibition constant (Ki) (in data set [4]; at Liver carboxylesterase 1 [5]; in data set [6]; at Acetylcholinesterase; at Cholinesterase) was over 100 µM each time.
For the compound `Cc1cccc2c1NC(=O)C2=O`, the Ki (in data set [4]; at Liver carboxylesterase 1 [5]; in data set [6]; at Acetylcholinesterase; on Cholinesterase) was over 100 µM in each case.
For the compound `O=C1Nc2ccc(Br)cc2C1=O`, the Ki was 13.3 µM in data set [4]; 31.7 µM on Liver carboxylesterase 1 [5]; 1.32 µM in data set [6]; over 100 µM at Acetylcholinesterase; over 100 µM on Cholinesterase.
Consider `N/N=C1\C(=O)Nc2ccccc21`, for which the result in data set [1] and in data set [3] was inactive. The Activity entry at Liver carboxylesterase 1 [2] is reported as “Not Active”.
In the case of `Cc1ccc(NCN2C(=O)C(=O)c3ccccc32)cc1`, the Ki in data set [4] is 1.08 µM; on Liver carboxylesterase 1 [5], 2.65 µM; in data set [6], 7.4 µM; on Acetylcholinesterase it was over 100 µM; on Cholinesterase, 18.1 µM.
On the same counts, the results for `O=C1Nc2c(Cl)cccc2C1=O` are 9.55 µM, 11.4 µM, 4.51 µM, over 100 µM and 30.6 µM.
On the same counts, the results for `O=C1C(=O)N(CN2CCSCC2)c2ccccc21` are 22.2 µM, over 100 µM, over 100 µM, over 100 µM and 98.9 µM.
On the same counts, the results for `O=C1C(=O)N(CN2CCCCC2)c2ccccc21` are 27.4 µM, over 100 µM, over 100 µM, over 100 µM and over 100 µM.
In the case of `O=C(CN1C(=O)C(=O)c2ccccc21)Nc1ccc(O)cc1`, the inhibitory constant (Ki) (in data set [4]; at Liver carboxylesterase 1 [5]; in data set [6]; on Acetylcholinesterase; at Cholinesterase) was over 100 µM each time.

These data come from ChEMBL document CHEMBL1144473, “Selective inhibition of carboxylesterases by isatins, indole-2,3-diones” (J Med Chem, 2007).
